Experimental data: paper PMC7570662, “In Vivo Pharmacokinetic Analysis Utilizing Non-Targeted and Targeted Mass Spectrometry and In Vitro Assay against Transient Receptor Potential Channels of Maobushisaishinto and Its Constituent Asiasari Radix” (Molecules, 2020)

Test: Qualitative non-targeted LC-HRMS analysis of AR compounds in rat plasma after oral AR or MBST
Format: in vivo
Details: for AR-Treated Rat Plasma (detection of compound): rat plasma 1 h after oral 2 g/kg AR, n = 1, LC-HRMS
Method: Extract powders of AR or MBST were suspended in distilled water and orally administered to rats having fasted for approximately 16 h. The dose of AR was set at 2 g/kg, and the MBST doses were set at 1 and 2 g/kg. 1 g/kg MBST contained 578 µg/kg, 147 µg/kg, 226 µg/kg, 426 µg/kg asarinin, sesamin, methyl kakuol, and amide A, respectively. The doses were chosen based on a previous pharmacological study of MBST using rats.
According to previous pharmacokinetic studies of herbal medicines, many of the components were quickly absorbed into the bloodstream, thereby providing the rationale for a sampling time at 1 h. Blood was centrifuged at 1200× g at 4 °C for 30 min to obtain plasma; then, the sample was stored at −80 °C until LC-HRMS analysis. […]
The plasma samples were collected at 1 h after MBST administration in case of both the qualitative (non-targeted) analysis and the quantitative (targeted) analysis.
The plasma samples of AR- or MBST-treated rats collected at 1 h post-administration were pretreated by deproteinization using methanol before the LC-HRMS analysis as follows: 100 µL plasma sample was mixed with 500 µL methanol, and the resultant solution was vortexed for 2 min. The mixture was centrifuged at 7000× g at 4 °C for 5 min. The supernatant was dried using a centrifugal evaporator, and the dried residue was dissolved in 100 μL of the initial LC mobile phase which is composed of 0.1 vol% formic acid in water/acetonitrile (99.9/0.1, v/v) and recentrifuged at 7000× g at 4 °C for 5 min. Finally, a 5 μL aliquot of the supernatant was injected into the LC-HRMS system comprised of an Acquity Ultra-Performance Liquid Chromatography System (Waters, Milford, MA, USA) and a Xevo G2-XS quadrupole time-of-flight MS (Waters) and was chromatographically separated using an ACQUITY UPLC HSS T3 column (2.1 × 150 mm I.D., 1.8-μm particle size; Waters) with an ACQUITY UPLC HSS T3 VanGuard Pre-column (2.1 mm × 5 mm I.D., 1.8-μm particle size; Waters) at 40 °C. The mobile phase consisted of solution A (0.1% formic acid, v/v) and solution B (acetonitrile) with a gradient of solution B (0.1%, 0 min; 99%, 24 min; v/v) at a flow rate of 0.4 mL/min. The analysis of the mass spectrometer fit with an electrospray ionization probe with sensitivity mode was performed for both the positive and negative ion mode. The resolution of the mass spectrometer was set at >20,000. For MS^E experiments, two acquisition functions with different collision energies were created: a low-energy function with a collision energy of 6 eV and a high-energy function with collision energy ranging from 15 to 40 eV.

Detection in plasma of rats treated with AR or MBST (non-targeted analysis) (rat, in vivo, po)	Compound	AR-Treated Rat Plasma (detection of compound)	MBST-Treated Rat Plasma (detection of compound) (rat plasma 1 h after oral 2 g/kg MBST, n = 3, LC-HRMS)
	(2E,4E,9E)-8,11-Dihydroxy-N-isobutyl-2,4,9-dodecatrienamide, (2E,4E,8Z)-10,11-Dihydroxy-N-isobutyl-2,4,8-dodecatrienamide	+ (The number of plus signs represents the sample number in which the compound was detected among AR-treated rat plasma (n = 1) and MBST-treated rat plasma (n = 3))	+ + + (The number of plus signs represents the sample number in which the compound was detected among AR-treated rat plasma (n = 1) and MBST-treated rat plasma (n = 3))
	C=CCc1ccc(OC)cc1 [Estragole]	+ (The number of plus signs represents the sample number in which the compound was detected among AR-treated rat plasma (n = 1) and MBST-treated rat plasma (n = 3))	
not detected	C/C=C/C=C\CC/C=C/C(=O)NCC(C)C [Spilanthol]		
